Test results reported in patent US20240285534A1, “CO-AMORPHOUS SOLID FORMS OF FLAVONOIDS” (ALPARIS, S.A. de C.V., priority 2022, published 2024).

Tests used:
[1] = Solubility test in water (supersaturated solutions); assay type: physicochemical; details: 22 mg added to 0.5 ml of water
Method: Supersaturated solutions of naringenin and NRG:ARG 1:3 NSF were prepared from 0.5 ml of water.

[2] = Wen et al., Molecules 2010; cited from earlier work

dissolution in water [1]: practically it did not dissolve at all
SMILES: O=C1C[C@@H](c2ccc(O)cc2)Oc2cc(O)cc(O)c21 [naringenin, Naringenin]
reported solubility [2]: 4.38 µg/mL
